Data from patent publication US20070117743A1, “New antitumoral compounds” (priority 2003, published 2007).
Where a SMILES comes first, the peptide text is derived from it. Bridges are numbered along the chain shown (N, C = ends). [ ]: non-standard residue; d: D form. The star is where a group is joined. d(aIle) = CC[C@H](C)[C@@H](N)C(=O)O; d(aThr) = C[C@@H](O)[C@@H](N)C(=O)O; Hexanoyl(5-Me) = CC(C)CCCC(=O)*; Orn = NCCC[C@H](N)C(=O)O; Dhb = C/C=C(\N)C(=O)O

Legend:
Type in all cases: cell-based, human
[1] = system: A-549; test: SRB colorimetric assay of cell growth and viability, A-549; conditions: 48 hours exposure; for GI50: read-out: GI50 A-549; for CC50: read-out: LC50 A-549
[2] = system: SK-MEL-28; test: SRB colorimetric assay of cell growth and viability, SK-MEL-28; conditions: 48 hours exposure; for CC50: read-out: LC50 MEL-28
Text: (§1) The finality of this assay is to interrupt the growth of a “in vitro” tumor cell culture by means a continued exhibition of the cells to the sample to be testing.
(§2) This form of the assay employs 96 well cell culture microplates of 9 mm diameter (Faircloth, 1988; Mosmann, 1983). Most of the cell lines are obtained from American Type Culture Collection (ATCC) derived from different human cancer types.
(§3) Cells are maintained in RPMI 1640 10% FBS, supplemented with 0.1 g/l penicillin and 0.1 g/l streptomycin sulfate and then incubated at 37° C., 5% CO2 and 98% humidity. For the experiments, cells were harvested from subconfluent cultures using trypsin and resuspended in fresh medium before plating.
(§4) Cells are seeded in 96 well microtiter plates, at 5×10^3 cells per well in aliquots of 195 μL medium, and they are allowed to attach to the plate surface by growing in drug free medium for 18 hours. Afterward, samples are added in aliquots of 5 μL in a ranging from 10 to 10^−8 μg/mL, dissolved in DMSO:EtOH:PBS (0.5:0.5:99). After 48 hours exposure, the antitumor effect are measured by the SRB methodology: cells are fixed by adding 50 μL of cold 50% (wt/vol) trichloroacetic acid (TCA) and incubating for 60 minutes at 4° C. Plates are washed with deionized water and dried. One hundred μL of SRB solution (0.4% wt/vol in 1% acetic acid) is added to each microtiter well and incubated for 10 minutes at room temperature. Unbound SRB is removed by washing with 1% acetic acid. Plates are air dried and bound stain is solubilized with Tris buffer. Optical densities are read on a automated spectrophotometric plate reader at a single wavelength of 490 nm.
(§5) The values for mean+/− SD of data from triplicate wells are calculated. Some parameters for cellular responses can be calculated: GI=growth inhibition, TGI=total growth inhibition (cytostatic effect) and LC=cell killing (cytotoxic effect).

[3] = system: HT-29; test: SRB colorimetric assay of cell growth and viability, HT-29; conditions: 48 hours exposure; for GI50: read-out: GI50 HT-29; for CC50: read-out: LC50 HT-29
[4] = system: LoVo; test: SRB colorimetric assay of cell growth and viability, LoVo; conditions: 48 hours exposure; for CC50: read-out: LC50 LOVO
Text: as §1, §2, §3, §4, §5

[5] = system: LoVo-Dox; test: SRB colorimetric assay of cell growth and viability, LoVo-Dox; conditions: 48 hours exposure; for CC50: read-out: LC50 LOVO-DOX
Text: as §1
A colorimetric type of assay, using sulforhodamine B (SRB) reaction has been adapted for a quantitative measurement of cell growth and viability [following the technique described by Philip Skehan, et al. (1990), New colorimetric cytotoxicity assay for anticancer drug screening, J. Natl. Cancer Inst., 82:1107-1112].
as §2, §3, §4, §5

[6] = system: DU-145; test: SRB colorimetric assay of cell growth and viability, DU-145; conditions: 48 hours exposure
Text: as §1, §2, §3, §4, §5

[7] = system: IGROV-1; test: SRB colorimetric assay of cell growth and viability, IGROV-1; conditions: 48 hours exposure
Text: as §1, §2, §3, §4, §5

[8] = system: IGROV-ET; test: SRB colorimetric assay of cell growth and viability, IGROV-ET; conditions: 48 hours exposure; for CC50: read-out: LC50 IGROV-ET
Text: as §1, §2, §3, §4, §5

[9] = system: HeLa; test: SRB colorimetric assay of cell growth and viability, HeLa; conditions: 48 hours exposure; for CC50: read-out: LC50 HELA
Text: as §1, §2, §3, §4, §5

[10] = system: HeLa-APL; test: SRB colorimetric assay of cell growth and viability, HeLa-APL; conditions: 48 hours exposure; for CC50: read-out: LC50 HELA-APL
Text: as §1, §2, §3, §4, §5

[11] = system: K-562; test: SRB colorimetric assay of cell growth and viability, K-562; conditions: 48 hours exposure; for CC50: read-out: LC50 K-562
Text: as §1, §2, §3, §4, §5

[12] = system: PANC-1; test: SRB colorimetric assay of cell growth and viability, PANC-1; conditions: 48 hours exposure; for CC50: read-out: LC50 PANC-1
Text: as §1, §2, §3, §4, §5

| Compound | TGI A-549 [1] [Molar] | GI50 [1] [µM] | CC50 [1] [µM] | GI50 [2] [µM] | TGI MEL-28 [2] [Molar] | CC50 [2] [µM] | TGI HT-29 [3] [Molar] | GI50 [3] [µM] | CC50 [3] [µM] | GI50 [4] [µM] | TGI LOVO [4] [Molar] | CC50 [4] [µM] | GI50 [5] [µM] | TGI LOVO-DOX [5] [Molar] | CC50 [5] [µM] | GI50 [6] [µM] | LC50 (concentration causing 50% net cell kill) [6] [µM] | TGI DU-145 [6] [Molar] | GI50 [7] [µM] | LC50 (concentration causing 50% net cell killing) [7] [µM] | other results |
| --- | --- | --- | --- | --- | --- | --- | --- | --- | --- | --- | --- | --- | --- | --- | --- | --- | --- | --- | --- | --- | --- |
| C/C=C1\NC(=O)[C@H](Cc2ccccc2)NC(=O)[C@@H](C(C)C)NC(=O)[C@@H]([C@@H](C)CC)NC(=O)[C@H](NC(=O)[C@H](NC(=O)[C@H](CCCN)NC(=O)[C@H]2CCCN2C(=O)[C@H](NC(=O)[C@@H](NC(=O)[C@H](C)NC(=O)CCCC(C)C)C(C)C)C(C)C)[C@@H](C)CC)[C@@H](C)OC(=O)[C@H](C(C)C)NC1=O [Compound 52, [Ala^12, noD-Val^13]-KF] ({Hexanoyl(5-Me)}-AV[dV][dP][Orn][d(aIle)][d(aThr)][d(aIle)][dV]F[Dhb]V; ester 7-C) | 7.41E−06 | 7.41 | 7.41 | 7.41 | 7.41E−06 | 7.41 | 7.41E−06 | 7.41 | 7.41 | 7.41 | 7.41E−06 | 7.41 | 7.41 | 7.41E−06 | 7.41 | 7.41 | 7.41 | 7.41E−06 | 7.41 | 7.41 | TGI IGROV [7]: 7.41E−06 Molar; GI50 [8]: 3.67 µM; TGI IGROV-ET [8]: 7.41E−06 Molar; CC50 [8]: 7.41 µM; GI50 [9]: 6.18 µM; TGI HELA [9]: 7.41E−06 Molar; CC50 [9]: 7.41 µM; GI50 [10]: 0.0179 µM; TGI HELA-APL [10]: 7.41E−06 Molar; CC50 [10]: 7.41 µM; GI50 [11]: 7.41 µM; TGI K-562 [11]: 7.41E−06 Molar; CC50 [11]: 7.41 µM; GI50 [12]: 6.64 µM; TGI PANC-1 [12]: 7.41E−06 Molar; CC50 [12]: 7.41 µM |
| C/C=C1\NC(=O)[C@H](Cc2ccccc2)NC(=O)[C@@H](C(C)C)NC(=O)[C@@H]([C@@H](C)CC)NC(=O)[C@H](NC(=O)[C@H](NC(=O)[C@H](CCCN)NC(=O)[C@H]2CCCN2C(=O)[C@H](NC(=O)[C@@H](NC(=O)CNC(=O)CCCC(C)C)C(C)C)C(C)C)[C@@H](C)CC)[C@@H](C)OC(=O)[C@H](C(C)C)NC1=O [Compound 53, [Gly^12, noD-Val^13]-KF] ({Hexanoyl(5-Me)}-GV[dV][dP][Orn][d(aIle)][d(aThr)][d(aIle)][dV]F[Dhb]V; ester 7-C) | 7.49E−06 | 7.49 | 7.49 | 7.49 | 7.49E−06 | 7.49 | 7.49E−06 | 7.49 | 7.49 | 5.29 | 7.49E−06 | 7.49 | 7.49 | 7.49E−06 | 7.49 | 7.49 | 7.49 | 7.49E−06 | 7.49 | 7.49 | TGI IGROV [7]: 7.49E−06 Molar; GI50 [8]: 3.31 µM; TGI IGROV-ET [8]: 7.49E−06 Molar; CC50 [8]: 7.49 µM; GI50 [9]: 7.49 µM; TGI HELA [9]: 7.49E−06 Molar; CC50 [9]: 7.49 µM; GI50 [10]: 7.49 µM; TGI HELA-APL [10]: 7.49E−06 Molar; CC50 [10]: 7.49 µM; GI50 [11]: 7.49 µM; TGI K-562 [11]: 7.49E−06 Molar; CC50 [11]: 7.49 µM; GI50 [12]: 4.17 µM; TGI PANC-1 [12]: 7.49E−06 Molar; CC50 [12]: 7.49 µM |
| C/C=C1\NC(=O)[C@H](Cc2ccccc2)NC(=O)[C@@H](C(C)C)NC(=O)[C@@H]([C@@H](C)CC)NC(=O)[C@H](NC(=O)[C@H](NC(=O)[C@H](CCCN)NC(=O)[C@H]2CCCN2C(=O)[C@H](NC(=O)[C@@H](NC(=O)[C@H](CC(C)C)NC(=O)CCCC(C)C)C(C)C)C(C)C)[C@@H](C)CC)[C@@H](C)OC(=O)[C@H](C(C)C)NC1=O [Compound 54, [Leu^12, noD-Val^13]-KF] ({Hexanoyl(5-Me)}-LV[dV][dP][Orn][d(aIle)][d(aThr)][d(aIle)][dV]F[Dhb]V; ester 7-C) | 2.19E−06 | 1.14 | 4.23 | 1.24 | 2.20E−06 | 3.9 | 3.51E−06 | 1.88 | 6.55 | 1.08 | 2.14E−06 | 4.21 | 1.55 | 2.88E−06 | 5.37 | 1.49 | 4.61 | 2.62E−06 | 1.11 | 3.92 | TGI IGROV [7]: 2.09E−06 Molar; GI50 [8]: 1.45 µM; TGI IGROV-ET [8]: 2.57E−06 Molar; CC50 [8]: 4.57 µM; GI50 [9]: 0.841 µM; TGI HELA [9]: 1.73E−06 Molar; CC50 [9]: 3.54 µM; GI50 [10]: 1.08 µM; TGI HELA-APL [10]: 2.04E−06 Molar; CC50 [10]: 3.88 µM; GI50 [11]: 1.31 µM; TGI K-562 [11]: 2.40E−06 Molar; CC50 [11]: 4.41 µM; GI50 [12]: 0.863 µM; TGI PANC-1 [12]: 2.01E−06 Molar; CC50 [12]: 4.68 µM |
| C/C=C1\NC(=O)[C@H](Cc2ccccc2)NC(=O)[C@@H](C(C)C)NC(=O)[C@@H]([C@@H](C)CC)NC(=O)[C@H](NC(=O)[C@H](NC(=O)[C@H](CCCN)NC(=O)[C@H]2CCCN2C(=O)[C@H](NC(=O)[C@@H](NC(=O)[C@@H]2CCCN2C(=O)CCCC(C)C)C(C)C)C(C)C)[C@@H](C)CC)[C@@H](C)OC(=O)[C@H](C(C)C)NC1=O [Compound 55, [Pro^12, noD-Val^13]-KF] ({Hexanoyl(5-Me)}-PV[dV][dP][Orn][d(aIle)][d(aThr)][d(aIle)][dV]F[Dhb]V; ester 7-C) | 7.27E−06 | 7.27 | 7.27 | 7.27 | 7.27E−06 | 7.27 | 7.27E−06 | 7.27 | 7.27 | 7.27 | 7.27E−06 | 7.27 | 7.27 | 7.27E−06 | 7.27 | 7.27 | 7.27 | 7.27E−06 | 7.27 | 7.27 | TGI IGROV [7]: 7.27E−06 Molar; GI50 [8]: 7.27 µM; TGI IGROV-ET [8]: 7.27E−06 Molar; CC50 [8]: 7.27 µM; GI50 [9]: 7.27 µM; TGI HELA [9]: 7.27E−06 Molar; CC50 [9]: 7.27 µM; GI50 [10]: 7.27 µM; TGI HELA-APL [10]: 7.27E−06 Molar; CC50 [10]: 7.27 µM; GI50 [11]: 7.27 µM; TGI K-562 [11]: 7.27E−06 Molar; CC50 [11]: 7.27 µM; GI50 [12]: 7.27 µM; TGI PANC-1 [12]: 7.27E−06 Molar; CC50 [12]: 7.27 µM |
